According to ChEMBL document CHEMBL1159164, “Inactivation of serine protease, -chymotrypsin by fluorinated phenylalanine analogues” (Bioorg Med Chem Lett, 1996):

Experiments:
[1] = target: T1, Chymotrypsinogen B (Homo sapiens, UniProt P17538); assay: Reversible inhibitory activity toward alpha-chymotrypsin (5 nM concentration) at a pH of 7.8 by progress curve method.
[2] = target: T1, Chymotrypsinogen B; assay: Irreversible inhibitory activity toward alpha-chymotrypsin (1.6 uM concentration) at a pH of 7.8 by incubation method. reversible competitive inactivation
[3] = target: T1, Chymotrypsinogen B; assay: Time dependent loss of inhibitory activity toward alpha-chymotrypsin (1.6 uM concentration) at a pH of 7.8 by incubation method; no inactivation observed.
[4] = target: T1, Chymotrypsinogen B
[5] = target: T1, Chymotrypsinogen B; assay: Reversible inhibitory activity toward alpha-chymotrypsin (5 nM concentration) at a pH of 7.8 by progress curve method.; no inactivation observed.
[6] = target: T1, Chymotrypsinogen B; assay: Irreversible inhibitory activity toward alpha-chymotrypsin (1.6 uM concentration) at a pH of 7.8 by incubation method.
[7] = target: T1, Chymotrypsinogen B; assay: Reversible inhibitory activity toward alpha-chymotrypsin (5 nM concentration) at a pH of 7.8 by progress curve method; no inactivation observed.
[8] = target: T1, Chymotrypsinogen B; remark: listed apart in the source

T1 sequence (P17538 34-164 limits assumed, other chains not shown): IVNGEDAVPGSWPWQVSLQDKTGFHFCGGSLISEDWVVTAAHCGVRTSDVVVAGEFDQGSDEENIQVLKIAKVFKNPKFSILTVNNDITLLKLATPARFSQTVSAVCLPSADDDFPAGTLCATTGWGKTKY
T1 sequence (P17538 167-263 limits assumed, other chains not shown): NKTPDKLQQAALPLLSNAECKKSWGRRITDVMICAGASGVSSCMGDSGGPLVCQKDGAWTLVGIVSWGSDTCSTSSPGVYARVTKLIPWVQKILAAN

SMILES	Ki [1]	[I] [2]	K obs / 1 [3]	also measured
COC(=O)C(F)[C@H](Cc1ccccc1)NC(C)=O (stereo in doubt; anti) [listing 1 of 2 here]	6.44 mM			
COC(=O)C(F)[C@H](Cc1ccccc1)NC(C)=O (stereo in doubt; anti) [listing 2 of 2 here]		6.25 mM	No inactivation	
COC(=O)C(F)[C@H](Cc1ccccc1)NC(C)=O (stereo in doubt; syn) [listing 1 of 2 here]		4.58 mM	No inactivation	
C=CC(F)[C@H](Cc1ccccc1)NC(C)=O (some centres not stated)			No inactivation	[I] [6]: 9.73 mM; Ki [7]: No inactivation
C=CC(F)(F)[C@H](Cc1ccccc1)NC(C)=O	0.46 mM			[I] [8]: 8.7 mM
COC(=O)C(F)[C@H](Cc1ccccc1)NC(C)=O (stereo in doubt; syn) [listing 2 of 2 here]	19.1 mM			

More lines, main results first:

Ki [1]	[I] [2]	K obs / 1 [3]	SMILES	also measured
0.034 mM	6.86 mM		COC(=O)C(F)(F)[C@H](Cc1ccccc1)NC(C)=O	K obs / 1 [4]: No inactivation
		No inactivation	CC(=O)N[C@@H](Cc1ccccc1)C(C)(F)F	Ki [5]: No inactivation; [I] [6]: 4.85 mM
